In ChEMBL document CHEMBL1124011, “Retinobenzoic acids. 1. Structure-activity relationships of aromatic amides with retinoidal activity” (1988):
Activity calls are given as the source filed them. The rule behind the calls is not given here.

What was measured:
[1] = Ratio of the ED50 of compound to that of ED50 of retinoic acid, expressed as relative activity; format: functional
[2] = system: Panel leukemia (Carcinoma cell lines); experiment: Effective dose for differentiation -inducing activity against human promyelocytic leukemia cells; format: functional; conditions: read-out: ED50 (the source's name)
[3] = system: Panel leukemia (Carcinoma cell lines); experiment: Effective dose for differentiation-inducing activity against human promyelocytic leukemia cells; format: functional, cell-based

`CC(C)(C)c1ccc(C(=O)Nc2ccc(C(=O)O)cc2)cc1` gave a Ratio [1] of less than 0.001 and an EC50 [2] greater than 10 µM.

Molecule `CC(C)(C)c1ccc(NC(=O)c2ccc(C(=O)O)cc2)cc1` has a Ratio [1] of less than 0.001 and an EC50 [2] greater than 10 µM.

For `CN(C)c1cccc(NC(=O)c2ccc(C(=O)O)cc2)c1`, the ED50 [3] was “inactive”.

For `CC(C)c1ccc(C(C)C)c(NC(=O)c2ccc(C(=O)O)cc2)c1`, the ED50 [3] was “inactive”.

`CC(C)c1cc(NC(=O)c2ccc(C(=O)O)cc2)cc(C(C)C)c1` showed a Ratio [1] of 0.042 and an EC50 [2] of 0.038 µM.

With `CC(C)(C)c1cc(NC(=O)c2ccc(C(=O)O)cc2)cc(C(C)(C)C)c1` the Ratio [1] was 0.15 and the EC50 [2] was 0.036 µM.

In the case of `O=C(O)c1ccc(C(=O)Nc2cccc3c2CCCC3)cc1`, the ED50 [3] is reported as “inactive”.

`CC1(C)CCC(C)(C)c2cc(NC(=O)c3ccc(C(=O)O)cc3)c(Br)cc21` showed a Ratio [1] of less than 0.0001 and an EC50 [2] greater than 1 µM.

Molecule `CC(C)c1ccc(NC(=O)c2ccc(C(=O)O)cc2)cc1C(C)C` has a Ratio [1] of 1.4 and an EC50 [2] of 0.0021 µM.

With `CCc1cccc(NC(=O)c2ccc(C(=O)O)cc2)c1` the ED50 [3] was “inactive”.

In the case of `CC(C)(C)c1cccc(NC(=O)c2ccc(C(=O)O)cc2)c1`, the Ratio [1] is reported as 3.2 and the EC50 [2] is reported as 0.7 µM.

`CC1(C)CCOc2ccc(C(=O)Nc3ccc(C(=O)O)cc3)cc21` gave a Ratio [1] of 0.0035 and an EC50 [2] of 0.8 µM.

For `CC1(C)CCC(C)(C)c2cc(NC(=O)c3ccc(C(=O)O)cc3)c(N)cc21`, the Ratio [1] was 0.011 and the EC50 [2] was 0.56 µM.

With `CC1=C(/C=C/C(C)=C/C=C/C(C)=C/C(=O)O)C(C)(C)CCC1` [TRETINOIN] the Ratio [1] was 1 and the EC50 [2] was 0.0024 µM.

For `CC1(C)CCSc2ccc(NC(=O)c3ccc(C(=O)O)cc3)cc21`, the Ratio [1] was 0.051 and the EC50 [2] was 0.073 µM.

With `O=C(O)c1ccc(NC(=O)c2ccccc2)cc1` the ED50 [3] was “inactive”.

Work on `CN(C(=O)c1ccc(C(=O)O)cc1)c1ccc2c(c1)C(C)(C)CCC2(C)C` yielded a Ratio [1] of less than 0.0001 and an EC50 [2] greater than 1 µM.

For `Cc1cccc(NC(=O)c2ccc(C(=O)O)cc2)c1`, the ED50 [3] was “inactive”.

In the case of `O=C(O)c1ccc(C(=O)Nc2ccccc2)cc1`, the ED50 [3] is reported as “inactive”.

Work on `Cc1cc2c(cc1NC(=O)c1ccc(C(=O)O)cc1)C(C)(C)CCC2(C)C` yielded a Ratio [1] of 0.006 and an EC50 [2] of 0.35 µM.

For `O=C(O)c1ccc(C(=O)Nc2cccc3ccccc23)cc1`, the ED50 [3] was “inactive”.

With `CC1(C)CCC(C)(C)c2c(NC(=O)c3ccc(C(=O)O)cc3)cccc21` the Ratio [1] was less than 0.0001 and the EC50 [2] was greater than 1 µM.

`CN(C(=O)c1ccc2c(c1)C(C)(C)CCC2(C)C)c1ccc(C(=O)O)cc1` gave a Ratio [1] of less than 0.0001 and an EC50 [2] greater than 1 µM.

With `CC1(C)CCC(C)(C)c2cc(C(=O)Nc3ccc(C(=O)O)cc3)ccc21` the Ratio [1] was 7.2 and the EC50 [2] was 0.00034 µM.

In the case of `CC(C)c1ccc(C(=O)Nc2ccc(C(=O)O)cc2)cc1C(C)C`, the Ratio [1] is reported as 0.04 and the EC50 [2] is reported as 0.068 µM.

For `O=C(O)c1ccc(C(=O)Nc2ccc3ccccc3c2)cc1`, the Ratio [1] was 3.5 and the ED50 [3] was “inactive”.

For `CC(C)c1ccc(NC(=O)c2ccc(C(=O)O)cc2)c(C(C)C)c1`, the ED50 [3] was “inactive”.

With `CC(C)c1cccc(C(C)C)c1NC(=O)c1ccc(C(=O)O)cc1` the ED50 [3] was “inactive”.

Molecule `CC1(C)CCC(C)(C)c2cc([N+](=O)[O-])c(NC(=O)c3ccc(C(=O)O)cc3)cc21` has a Ratio [1] of less than 0.001 and an EC50 [2] greater than 10 µM.

In the case of `CC1(C)CCOc2c(Cl)cc(C(=O)Nc3ccc(C(=O)O)cc3)cc21`, the Ratio [1] is reported as 0.037 and the EC50 [2] is reported as 0.075 µM.

For `CC(C)(C)c1cc(C(=O)Nc2ccc(C(=O)O)cc2)cc(C(C)(C)C)c1`, the Ratio [1] was 0.056 and the EC50 [2] was 0.048 µM.

For `CC(C)c1ccc(NC(=O)c2ccc(C(=O)O)cc2)cc1`, the Ratio [1] was 9.8 and the EC50 [2] was 0.91 µM.

Molecule `CC(C)(C)c1cccc(C(=O)Nc2ccc(C(=O)O)cc2)c1` has a Ratio [1] of less than 0.001 and an EC50 [2] greater than 10 µM.

Work on `CC12CCC(C)(CC1)c1cc(NC(=O)c3ccc(C(=O)O)cc3)ccc12` yielded a Ratio [1] of 0.059 and an EC50 [2] of 0.068 µM.

For `O=C(O)c1ccc(C(=O)Nc2ccc3c(c2)C2CCC3CC2)cc1`, the Ratio [1] was less than 0.001 and the EC50 [2] was greater than 10 µM.

`CC1(C)CCC(C)(C)c2cc(NC(=O)c3ccc(C(=O)O)cc3)ccc21` [TAMIBAROTENE] gave a Ratio [1] of 3.5 and an EC50 [2] of 0.00079 µM.

`CC1(C)CCOc2ccc(NC(=O)c3ccc(C(=O)O)cc3)cc21` showed a Ratio [1] of less than 0.0001 and an EC50 [2] greater than 1 µM.

For `O=C(O)c1ccc(C(=O)Nc2cccc(Br)c2)cc1`, the ED50 [3] was “inactive”.

For `CC(C)c1ccccc1NC(=O)c1ccc(C(=O)O)cc1`, the ED50 [3] was “inactive”.

For `CC(C)c1cccc(NC(=O)c2ccc(C(=O)O)cc2)c1`, the Ratio [1] was 1.3 and the EC50 [2] was 0.68 µM.

In the case of `CC(C)(C)c1cc(C(C)(C)C)c(NC(=O)c2ccc(C(=O)O)cc2)c(C(C)(C)C)c1`, the ED50 [3] is reported as “inactive”.

In the case of `CC1(C)CCS(=O)(=O)c2ccc(C(=O)Nc3ccc(C(=O)O)cc3)cc21`, the ED50 [3] is reported as “inactive”.

`O=C(O)c1ccc(C(=O)Nc2cccc(C3CCCCC3)c2)cc1` gave a Ratio [1] of less than 0.0001 and an EC50 [2] greater than 1 µM.

With `O=C(O)c1ccc(C(=O)Nc2cccc(-c3ccccc3)c2)cc1` the ED50 [3] was “inactive”.

`CCc1ccc(NC(=O)c2ccc(C(=O)O)cc2)cc1CC` showed a Ratio [1] of 0.0077 and an EC50 [2] of 0.26 µM.
